Results as given in patent US20240368096A1 (Enanta Pharmaceuticals, Inc., priority 2022, published 2024).

What follows are compounds tested on HBV (assay: HBV infection in HepG2-NTCP cells (HBeAg AlphaLISA in supernatants)). Conditions: Hepatitis B virus, 192 h, read-out: Cellular EC50 (μM).
Assay type: cell-based
Summary of the method: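 HepG2-NTCP A3 cells were pre-incubated 2 h with 3-fold serially diluted compounds, then infected with HBV at 2000 GE/cell with 4% PEG (0.5% DMSO final). After washing on day 1, cells stayed in 2.5% DMSO medium; supernatant HBeAg measured by AlphaLISA on day 8, EC50 versus DMSO controls.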

Work on `CCOP(=O)(OCC)c1cccc(-c2cc3c(cc2Cl)N(c2ccccc2)C[C@@H](CC(C)C)N(C)S3(=O)=O)c1` [Example 169] yielded an EC50 greater than 1 µM.

Same assay, conditions: Hepatitis B virus, 192 h; HBV infection of HepG2-NTCP cells; HBeAg in supernatants at day 8 post infection; read-out: Cellular EC50

`CN1[C@H](C2CCCCC2)CN(c2ccccc2)c2cc(OCc3cnco3)c(-c3ccc(F)c(C(=O)O)c3)cc2S1(=O)=O` [Example 343] and `CN1[C@H](C2CCCCC2)CN(c2ccccc2)c2cc(OCc3cn(C)cn3)c(-c3ccc(F)c(C(=O)O)c3)cc2S1(=O)=O` [Example 389, (R)-5-(3-cyclohexyl-2-methyl-7-((1-methyl-1H-imidazol-4-yl)methoxy)-1,1-dioxido-5-phenyl-2,3,4,5-tetrahydrobenzo[f][1,2,5]thiadiazepin-8-yl)-2-fluorobenzoic acid] fall in the same range of EC50: 0.1 to 1 µM for the first, 0.1 to 1 µM for the second.

`CN1[C@H](Cc2ccc(Cl)cc2)CN(c2ccccc2)c2cc(Cl)c(-c3ccc(F)c(C(=O)O)c3)cc2S1(=O)=O` [Example 49] and `CCC1CN(c2ccccc2)c2cc(Cl)c(-c3ccc(F)c(C(=O)O)c3)cc2S(=O)(=O)N1C` (stereo not drawn) [Example 45] cannot be ordered by EC50: greater than 1 µM for the first, greater than 1 µM for the second.

`CSc1cc2c(cc1-c1cccc(C(=O)O)c1)S(=O)(=O)N1C[C@@H](C(F)(F)F)C[C@H]1CN2c1ccccc1` [Example 24] and `O=C(O)c1cccc(-c2cc3c(cc2F)N(c2ccccc2)C[C@@H]2C[C@H](C(F)(F)F)CN2S3(=O)=O)c1` [Example 11] cannot be ordered by EC50: greater than 1 µM for the first, greater than 1 µM for the second.

Compared with `CO[C@H]1C[C@@H](Oc2cc3c(cc2-c2ccc(F)c(C(=O)O)c2)S(=O)(=O)N(C)[C@H](C2CCCCC2)CN3c2ccccc2)C1` [Example 379], `CN1[C@H](C2CCCCC2)CN(c2ccccc2)c2cc(OC3CC4(CC4)C3)c(-c3ccc(F)c(C(=O)O)c3)cc2S1(=O)=O` [Example 385] is lower in EC50: 0.1 to 1 µM for the first, less than 0.1 µM for the second. The second is the more potent here.

First: O=C(O)c1cccc(-c2cc3c(cc2F)N(c2ccccc2)CC2c4ccccc4CN2S3(=O)=O)c1 (stereo not drawn) [Example 3]
Second: O=C(O)c1cc(-c2cc3c(cc2F)N(c2ccccc2)CC2c4ccccc4CN2S3(=O)=O)ccc1F (stereo not drawn) [Example 4]
The EC50 of the first is higher: greater than 1 µM for the first, 0.1 to 1 µM for the second.

First: CCOc1ccc(N2C[C@@H](C3CCCCC3)N(C)S(=O)(=O)c3cc(-c4ccc(F)c(C(=O)O)c4)c(Cl)cc32)cc1 [Example 309]
Second: CN1[C@H](C2CCCCC2)CN(c2ccc(OC(F)(F)F)cc2)c2cc(Cl)c(-c3ccc(F)c(C(=O)O)c3)cc2S1(=O)=O [Example 292]
The EC50 of the first is higher: 0.1 to 1 µM for the first, less than 0.1 µM for the second.

Compared with `CC(C)C[C@@H]1CN(c2ccccc2)c2cc(C3CCN(C(=O)OC(C)(C)C)CC3)c(-c3ccc(F)c(C(=O)O)c3)cc2S(=O)(=O)N1C` [Example 592], `CN1[C@H](C2CCCCC2)CN(c2ccccc2)c2cc(OCC3CCN(C(=O)OC(C)(C)C)CC3)c(-c3ccc(F)c(C(=O)O)c3)cc2S1(=O)=O` [Example 366] is lower in EC50: 0.1 to 1 µM for the first, less than 0.1 µM for the second. The second is the more potent here.

`CC(C)C[C@@H]1CN(C(C)C)c2cc(Oc3ccccc3F)c(-c3ccc(F)c(C(=O)O)c3)cc2S(=O)(=O)N1C` [Example 468] and `CC(C)C[C@@H]1CN([C@@H]2CCOC2)c2cc(Oc3ccccc3F)c(-c3ccc(F)c(C(=O)O)c3)cc2S(=O)(=O)N1C` [Example 470] fall in the same range of EC50: 0.1 to 1 µM for the first, 0.1 to 1 µM for the second.

First: CN1[C@H](CNC(C)(C)C)CN(c2ccccc2)c2cc(Cl)c(-c3ccc(F)c(C(=O)O)c3)cc2S1(=O)=O [Example 114]
Second: CCCC[C@@H]1CN(c2ccccc2)c2cc(N(C)C)c(-c3ccc(F)c(C(=O)O)c3)cc2S(=O)(=O)N1C [Example 524]
The EC50 of the first is higher: greater than 1 µM for the first, less than 0.1 µM for the second. The second is the more potent here.

Going from `CC(C)CS(=O)(=O)Nc1ccc(-c2cc3c(cc2Cl)N(c2ccccc2)C[C@@H](C2CCCCC2)N(C)S3(=O)=O)cc1C(=O)O` [Example 267, (R)-5-(7-chloro-3-cyclohexyl-2-methyl-1,1-dioxido-5-phenyl-2,3,4,5-tetrahydrobenzo[f][1,2,5]thiadiazepin-8-yl)-2-((2-methylpropyl)sulfonamido)benzoic acid] to `Cc1c(C(=O)O)cccc1-c1cc2c(cc1Cl)N(c1ccccc1)C[C@@H](C1CCCCC1)N(C)S2(=O)=O` [Example 144, (R)-3-(7-chloro-3-cyclohexyl-2-methyl-1,1-dioxido-5-phenyl-2,3,4,5-tetrahydrobenzo[f][1,2,5]thiadiazepin-8-yl)-2-methylbenzoic acid], the EC50 rises from less than 0.1 µM to greater than 1 µM. The first is the more potent here.

`CN1[C@H](C2CCCCC2)CN(c2ccccc2)c2cc(Cl)c(-c3cc(C(=O)O)ccn3)cc2S1(=O)=O` [Example 139, (R)-2-(7-chloro-3-cyclohexyl-2-methyl-1,1-dioxido-5-phenyl-2,3,4,5-tetrahydrobenzo[f][1,2,5]thiadiazepin-8-yl)isonicotinic acid] and `CN1[C@H](C2CCCCC2)CN(c2ccccc2)c2cc(Cl)c(-c3cc(C(=O)O)c4nccn4c3)cc2S1(=O)=O` [Example 211] fall in the same range of EC50: 0.1 to 1 µM for the first, 0.1 to 1 µM for the second.

`CN1[C@H](C2CCCCC2)CN(c2ccccc2)c2cc(Cl)c(-c3cc(C(=O)O)cc(C(F)(F)F)c3)cc2S1(=O)=O` [Example 142, (R)-3-(7-chloro-3-cyclohexyl-2-methyl-1,1-dioxido-5-phenyl-2,3,4,5-tetrahydrobenzo[f][1,2,5]thiadiazepin-8-yl)-5-(trifluoromethyl)benzoic acid] and `CN1[C@H](C2CCCCC2)CN(c2cccc(C(F)(F)F)c2)c2cc(Cl)c(-c3ccc(F)c(C(=O)O)c3)cc2S1(=O)=O` [Example 301] fall in the same range of EC50: 0.1 to 1 µM for the first, 0.1 to 1 µM for the second.

`CC(C)C[C@@H]1CN(c2ccccc2)c2cc(Oc3ccccc3F)c(-c3ccc(F)c(C(=O)O)c3)cc2S(=O)(=O)N1C` [Example 429] and `CC(C)C[C@@H]1CN(c2ccccc2)c2cc(-c3cccc(F)c3)c(-c3ccc(F)c(C(=O)O)c3)cc2S(=O)(=O)N1C` [Example 575] cannot be ordered by EC50: less than 0.1 µM for the first, less than 0.1 µM for the second.

Compared with `CCCC[C@@H]1CN(c2ccccc2)c2cc(N3CCCC3)c(-c3cc(C(=O)O)n(C)n3)cc2S(=O)(=O)N1C` [Example 521], `C=CC[C@H]1CN(c2ccccc2)c2cc(Cl)c(-c3cccc(C(=O)O)c3)cc2S(=O)(=O)N1C` [Example 40] is higher in EC50: 0.1 to 1 µM for the first, greater than 1 µM for the second.

Going from `CC(C)C[C@@H]1CN(c2ccccc2)c2cc(Cl)c(-c3ccc(C4=CCC(C)(C)CC4)c(C(=O)O)c3)cc2S(=O)(=O)N1C` [Example 217] to `CC(C)C[C@@H]1CN(c2ccccc2)c2cc(OC(C)(C)C)c(-c3ccc(Cl)c(C(=O)O)c3)cc2S(=O)(=O)N1C` [Example 440], the EC50 falls from greater than 1 µM to less than 0.1 µM. The second is the more potent here.

Compared with `CN1[C@H](C2CCCCC2)CN(c2ccccc2)c2cc(OCC3CCC3)c(-c3ccc(F)c(C(=O)O)c3)cc2S1(=O)=O` [Example 364], `COCCN(C)c1cc2c(cc1-c1ccc(F)c(C(=O)O)c1)S(=O)(=O)N(C)[C@H](C1CCCCC1)CN2c1ccccc1` [Example 537] is higher in EC50: less than 0.1 µM for the first, 0.1 to 1 µM for the second.

Compared with `CN1[C@H](C2CCCCC2)CN(c2cccc(Cl)c2)c2cc(Cl)c(-c3ccc(F)c(C(=O)O)c3)cc2S1(=O)=O` [Example 296], `CN1[C@H](C2CCCCC2)CN(c2ccccc2)c2cc(Cl)c(-c3cc(C(=O)O)c4cn[nH]c4c3)cc2S1(=O)=O` [Example 208, (R)-6-(7-chloro-3-cyclohexyl-2-methyl-1,1-dioxido-5-phenyl-2,3,4,5-tetrahydrobenzo[f][1,2,5]thiadiazepin-8-yl)-1H-indazole-4-carboxylic acid] is higher in EC50: less than 0.1 µM for the first, greater than 1 µM for the second.

First: COc1cc(-c2cc3c(cc2Cl)N(c2ccccc2)C[C@@H](CC(C)C)N(C)S3(=O)=O)cc(C(=O)O)c1F [Example 179, (R)-5-(7-chloro-3-isobutyl-2-methyl-1,1-dioxido-5-phenyl-2,3,4,5-tetrahydrobenzo[f][1,2,5]thiadiazepin-8-yl)-2-fluoro-3-methoxybenzoic acid]
Second: CC(C)[C@@H]1CN(c2ccccc2)c2cc(Cl)c(-c3cc(F)c(F)c(C(=O)O)c3)cc2S(=O)(=O)N1C [Example 63]
The EC50 of the first is higher: 0.1 to 1 µM for the first, less than 0.1 µM for the second. The second is the more potent here.

First: CC(C)C[C@@H]1CN(c2ccccc2)c2cc(OCCc3cscn3)c(-c3ccc(F)c(C(=O)O)c3)cc2S(=O)(=O)N1C [Example 460]
Second: CC(C)C[C@@H]1CN(c2ccccc2)c2cc(Cl)c(-c3cc(C(=O)O)cc(C(F)(F)F)c3)cc2S(=O)(=O)N1C [Example 164]
The EC50 of the first is lower: less than 0.1 µM for the first, 0.1 to 1 µM for the second.

First: CN1[C@H](C2CCCCC2)CN(c2ccccc2)c2cc(Cl)c(-c3cc(C(=O)O)c4ncccc4c3)cc2S1(=O)=O [Example 210]
Second: O=C(O)c1cc(-c2cc3c(cc2Cl)N(c2ccccc2)CC(C2CCCCC2)CS3(=O)=O)cc(F)c1F (racemic) [Example 606, Rac-5-(7-chloro-3-cyclohexyl-1,1-dioxido-5-phenyl-2,3,4,5-tetrahydrobenzo[b][1,4]thiazepin-8-yl)-2,3-difluorobenzoic acid]
The EC50 of the first is higher: 0.1 to 1 µM for the first, less than 0.1 µM for the second. The second is the more potent here.

`CN1[C@H](C2CCCCC2)CN(c2ccccc2)c2cc(OCC34CC(C#N)(CO3)C4)c(-c3cc(F)c(C(=O)O)s3)cc2S1(=O)=O` [Example 504] and `CN1[C@H](C2CCCCC2)CN(c2ccccc2)c2cc(OC3CC(C)(C)C3)c(-c3cc(F)c(C(=O)O)s3)cc2S1(=O)=O` [Example 483, (R)-5-(3-cyclohexyl-7-(3,3-dimethylcyclobutoxy)-2-methyl-1,1-dioxido-5-phenyl-2,3,4,5-tetrahydrobenzo[f][1,2,5]thiadiazepin-8-yl)-3-fluorothiophene-2-carboxylic acid] cannot be ordered by EC50: less than 0.1 µM for the first, less than 0.1 µM for the second.

Compared with `Cc1cc(COc2cc3c(cc2-c2cc(F)c(C(=O)O)s2)S(=O)(=O)N(C)[C@H](C2CCCCC2)CN3c2ccccc2)c(C)s1` [Example 492], `CN1[C@H](C2CCCCC2)CN(c2ccccc2)c2cc(N3CC4(CCCC4)C3)c(-c3ccc(F)c(C(=O)O)c3)cc2S1(=O)=O` [Example 533] is higher in EC50: less than 0.1 µM for the first, 0.1 to 1 µM for the second. The first is the more potent here.

`CN1[C@H](C2CCCCC2)CNc2cc(C34CC(C3)C4)c(-c3ccc(F)c(C(=O)O)c3)cc2S1(=O)=O` [Example 585] and `CSc1cc2c(cc1-c1cccc(C(=O)O)c1)S(=O)(=O)N1CC3(CC3)CC1CN2c1ccccc1` (stereo not drawn) [Example 18, 3-(8-(methylthio)-5,5-dioxido-10-phenyl-1,10,11,11a-tetrahydro-3H-spiro[benzo[f]pyrrolo[1,2-b][1,2,5]thiadiazepine-2,1′-cyclopropan]-7-yl)benzoic acid] fall in the same range of EC50: 0.1 to 1 µM for the first, 0.1 to 1 µM for the second.

For `O=C(O)c1cccc(-c2cc3c(cc2Cl)N(c2ccccc2)CC2CC4(CC4)CN2S3(=O)=O)c1` (stereo not drawn) [Example 57], the EC50 was 0.1 to 1 µM.
